Experimental data from patent publication US20120053148A1, “INHIBITORS OF HEPATITIS C VIRUS” (GILEAD SCIENCES, INC., priority 2010, published 2012).

Test system: HCV Replicon IB
Test: HCV replicon assay in Huh-7 cells, genotype 1b (Rluc luciferase readout)
Format: cell-based, hepatitis C virus
Conditions: Hepatitis C virus, 72 h; 10 uM; 1b-Rluc replicon, Huh-7 cells, 3 days; read-out: Inhibition @ 10 uM in 1b-Rluc

SMILES | inhibition at 10 µM
Cc1cc(C(=O)NC[C@H]2CCCN2)nc2c(C(F)(F)F)cc(C3CC3)cc12 (single isomer, unassigned) [Compound 113] | 96.2%
COC1CN[C@H](CNC(=O)c2cc(C)c3cc(C4CC4)cc(C(F)(F)F)c3n2)C1 (single isomer, unassigned) [Compound 127] | 99.7%
O=C(NC[C@@H]1C[C@@H](F)CN1)c1cc(Cl)c2cc(OC(F)F)cc(C(F)(F)F)c2n1 (single isomer, unassigned) [Compound 199] | 98.1%
Cc1cc(C(=O)NC[C@@H]2CC(F)(F)CCN2)nc2c(C(F)(F)F)cc(OC(F)F)cc12 (single isomer, unassigned) [Compound 202] | 99.5%
O=C(NC[C@@H]1CC(F)(F)CCN1)c1cc(Cl)c2cc(OC(F)F)cc(C(F)(F)F)c2n1 (single isomer, unassigned) [Compound 203] | 98.3%
Cc1cc(C(=O)NCc2ccccn2)nc2c(C(F)(F)F)cc(C3CC3)cc12 [Compound 79] | 100%
Cc1cc(C(=O)NCc2cccc(F)n2)nc2c(C(F)(F)F)cc(C3CC3)cc12 [Compound 80] | 99.8%
Cc1cc(C(=O)NCC2CCCCO2)nc2c(C(F)(F)F)cc(C3CC3)cc12 (centres unmarked) [Compound 81] | 100%
Cc1cc(C(=O)NCC2OCCCO2)nc2c(C(F)(F)F)cc(C3CC3)cc12 [Compound 82] | 100%
Cc1cccc(CNC(=O)c2cc(C)c3cc(C4CC4)cc(C(F)(F)F)c3n2)n1 [Compound 83] | 99.4%
Cc1cccnc1CNC(=O)c1cc(C)c2cc(C3CC3)cc(C(F)(F)F)c2n1 [Compound 84] | 99%
Cc1ccc(CNC(=O)c2cc(C)c3cc(C4CC4)cc(C(F)(F)F)c3n2)nc1 [Compound 85] | 100%
Cc1cc(C(=O)NCc2cc(C(F)(F)F)ccn2)nc2c(C(F)(F)F)cc(C3CC3)cc12 [Compound 86] | 100%
Cc1cc(C(=O)NCC2(NC(=O)OC(C)(C)C)CC2)nc2c(C(F)(F)F)cc(C3CC3)cc12 [Compound 87] | 84.5%
Cc1cc(C(=O)NCC2(N)CC2)nc2c(C(F)(F)F)cc(C3CC3)cc12 [Compound 88] | 95.6%
Cc1cc(C(=O)NCc2cnccn2)nc2c(C(F)(F)F)cc(C3CC3)cc12 [Compound 89] | 100%
Cc1cc(C(=O)NCc2ncccn2)nc2c(C(F)(F)F)cc(C3CC3)cc12 [Compound 90] | 100%
Cc1cc(C(=O)NCC2CCCC(=O)N2)nc2c(C(F)(F)F)cc(C3CC3)cc12 (centres unmarked) [Compound 91] | 92.7%
Cc1cc(C(=O)NC[C@H]2CCCO2)nc2c(C(F)(F)F)cc(C3CC3)cc12 [Compound 92] | 100%
Cc1cc(C(=O)NCC(C)(C)O)nc2c(C(F)(F)F)cc(C3CC3)cc12 [Compound 93] | 99%
Cc1cc(C(=O)NCC2(O)CCCC2)nc2c(C(F)(F)F)cc(C3CC3)cc12 [Compound 94] | 99.9%
CCC(=O)CNC(=O)c1cc(C)c2cc(C3CC3)cc(C(F)(F)F)c2n1 [Compound 95] | 100%
Cc1cc(C(=O)NCC2OCCO2)nc2c(C(F)(F)F)cc(C3CC3)cc12 [Compound 96] | 99.9%
Cc1cc(C(=O)NCC2(O)CC2)nc2c(C(F)(F)F)cc(C3CC3)cc12 [Compound 97] | 98.8%

SMILES | inhibition at 10 µM
Cc1cc(C(=O)NCC2(C)OCCO2)nc2c(C(F)(F)F)cc(C3CC3)cc12 [Compound 98] | 98.1%
Cc1cc(C(=O)NCC2COCCN2)nc2c(C(F)(F)F)cc(C3CC3)cc12 (centres unmarked) [Compound 100] | 99.5%
CC(=O)N1CCOCC1CNC(=O)c1cc(C)c2cc(C3CC3)cc(C(F)(F)F)c2n1 (centres unmarked) [Compound 101] | 73.3%
Cc1cc(C(=O)NCC2CC2)nc2c(C(F)(F)F)cc(C3CC3)cc12 [Compound 102] | 99.7%
Cc1cc(C(=O)NCC2(C)COC2)nc2c(C(F)(F)F)cc(C3CC3)cc12 [Compound 103] | 96.1%
Cc1cc(C(=O)NCCC#N)nc2c(C(F)(F)F)cc(-c3ccccc3)cc12 [Compound 104] | 70.3%
Cc1cc(C(=O)NCC#N)nc2c(C(F)(F)F)cc(-c3ccccc3)cc12 [Compound 105] | 82.8%
Cc1cc(C(=O)NCCC2OCCO2)nc2c(C(F)(F)F)cc(C3CC3)cc12 [Compound 106] | 99.7%
Cc1cc(C(=O)NCC2CCCCN2C(=O)OC(C)(C)C)nc2c(C(F)(F)F)cc(C3CC3)cc12 (centres unmarked) [Compound 107] | 94.5%
Cc1cc(C(=O)NCC2CCCCN2)nc2c(C(F)(F)F)cc(C3CC3)cc12 (centres unmarked) [Compound 108] | 96.5%
Cc1cc(C(=O)NCc2cc(C#N)ccn2)nc2c(C(F)(F)F)cc(C3CC3)cc12 [Compound 110] | 99.9%
Cc1cc(C(=O)NCc2ccc(C#N)cn2)nc2c(C(F)(F)F)cc(C3CC3)cc12 [Compound 112] | 99.7%
CNC(=O)CNC(=O)c1cc(C)c2cc(C3CC3)cc(C(F)(F)F)c2n1 [Compound 116] | 97.2%
COCCNC(=O)CNC(=O)c1cc(C)c2cc(C3CC3)cc(C(F)(F)F)c2n1 [Compound 117] | 94.7%
COCCCNC(=O)CNC(=O)c1cc(C)c2cc(C3CC3)cc(C(F)(F)F)c2n1 [Compound 118] | 84.5%
COCCNC(=O)c1cc(C)c2cc(C3CC3)cc(C(F)(F)F)c2n1 [Compound 119] | 99.5%
COCCCNC(=O)c1cc(C)c2cc(C3CC3)cc(C(F)(F)F)c2n1 [Compound 120] | 99.8%
Cc1cc(C(=O)NCCCO)nc2c(C(F)(F)F)cc(C3CC3)cc12 [Compound 121] | 99.2%
Cc1cc(C(=O)NCCCN2CCOCC2)nc2c(C(F)(F)F)cc(C3CC3)cc12 [Compound 122] | 97.2%
CNCCCNC(=O)c1cc(C)c2cc(C3CC3)cc(C(F)(F)F)c2n1 [Compound 123] | 96.7%
Cc1cc(C(=O)NCCC2CCCCN2)nc2c(C(F)(F)F)cc(C3CC3)cc12 (centres unmarked) [Compound 124] | 99.2%
Cc1cc(C(=O)NCC2CCN2)nc2c(C(F)(F)F)cc(C3CC3)cc12 (centres unmarked) [Compound 125] | 95.2%
Cc1cc(C(=O)NCCCN2CC(O)C2)nc2c(C(F)(F)F)cc(C3CC3)cc12 [Compound 126] | 90.1%
Cc1cc(C(=O)NC[C@H]2CC(F)(F)CN2)nc2c(C(F)(F)F)cc(C3CC3)cc12 [Compound 128] | 99.4%

SMILES | inhibition at 10 µM
Cc1cc(C(=O)NCCNc2ccccn2)nc2c(C(F)(F)F)cc(C3CC3)cc12 [Compound 129] | 94.9%
Cc1cc(C(=O)NCc2cc(CN3CCOCC3)ccn2)nc2c(C(F)(F)F)cc(C3CC3)cc12 [Compound 130] | 84.7%
Cc1cc(C(=O)NC[C@@H]2CC(F)(F)CCN2)nc2c(C(F)(F)F)cc(C3CC3)cc12 [Compound 132] | 100%
Cc1cc(C(=O)NCC2COCC(C)(C)N2)nc2c(C(F)(F)F)cc(C3CC3)cc12 (centres unmarked) [Compound 133] | 92.4%
Cc1cc(C(=O)NC2CNC(C)(C)COC2)nc2c(C(F)(F)F)cc(C3CC3)cc12 (centres unmarked) [Compound 134] | 93.1%
Cc1cc(C(=O)NCc2ccccn2)nc2c(C(F)(F)F)cc(C3(C)CC3)cc12 [Compound 138] | 99%
CC(C)=Cc1cc(C(F)(F)F)c2nc(C(=O)NCc3ccccn3)cc(C)c2c1 [Compound 139] | 99.7%
Cc1cc(C(=O)NCc2ccccn2)nc2c(C(F)(F)F)cc(CC(C)C)cc12 [Compound 140] | 99.1%
Cc1cc(C(=O)NCc2ccccn2)nc2c(C(F)(F)F)cc(C3OC3(C)C)cc12 (centres unmarked) [Compound 141] | 94.8%
Cc1cc(C(=O)NCc2ccccn2)nc2c(C(F)(F)F)cc(C3CC3(C)C)cc12 (centres unmarked) [Compound 142] | 99.4%
Cc1cc(C(F)(F)F)c2nc(C(=O)NCc3ccccn3)cc(C)c2c1 [Compound 143] | 93.7%
Cc1cc(C(=O)NCc2ccccn2)nc2c(C(F)(F)F)cc(C#N)cc12 [Compound 144] | 57.9%
Cc1cc(C(=O)NCc2ccccn2)nc2c(C(F)(F)F)cc(C#CC(C)(C)C)cc12 [Compound 145] | 72%
C#Cc1cc(C(F)(F)F)c2nc(C(=O)NCc3ccccn3)cc(C)c2c1 [Compound 146] | 99.4%
Cc1cc(C(=O)NCc2ccccn2)nc2c(C(F)(F)F)cc(C#CC3CC3)cc12 [Compound 147] | 94.1%
CC#Cc1cc(C(F)(F)F)c2nc(C(=O)NCc3ccccn3)cc(C)c2c1 [Compound 148] | 99.5%
Cc1cc(C(=O)NCc2ccccn2)nc2c(C(F)(F)F)cc(C3=CCCC3)cc12 [Compound 149] | 99.4%
Cc1cc(C(=O)NCc2ccccn2)nc2c(C(F)(F)F)cc(C3CCCC3)cc12 [Compound 150] | 99%
Cc1cc(C(=O)NCC2CCCCN2)nc2c(C(F)(F)F)cc(C3CCCC3)cc12 (centres unmarked) [Compound 151] | 99.6%
Cc1cc(C(=O)NCc2ccccn2)nc2c(C(F)(F)F)cc(C3CC3(F)F)cc12 (centres unmarked) [Compound 154] | 100%
Cc1cc(C(=O)NC[C@@H]2COCCN2)nc2c(C(F)(F)F)cc(C3CC3(F)F)cc12 (some centres unmarked) [Compound 155] | 99.7%
C=C(C)c1cc(C(F)(F)F)c2nc(C(=O)NCc3ccccn3)cc(C)c2c1 [Compound 156] | 99.6%

Same assay, conditions: Hepatitis C virus, Huh-7, 72 h, HCV1B replicon, Huh-7 cells, 3 days; read-out: EC50_HCV1B_

SMILES | EC50
Cc1cc(-c2nnc(N[C@H]3CC[C@@](C)(O)C3)o2)nc2c(C(C)(C)C)cc(OCC(F)(F)F)cc12 (racemic) [Compound 474] | 1.02 nM
Cc1cc(-c2nnc(N[C@H]3CC[C@@H](O)C3)o2)nc2c(C(C)(C)C)cc(OCC(F)(F)F)cc12 (racemic) [Compound 476] | 1.32 nM
Cc1cc(-c2nnc(N[C@H]3CC[C@H](O)C3)o2)nc2c(C(C)(C)C)cc(OCC(F)(F)F)cc12 (racemic) [Compound 477] | 2.22 nM

Same assay, conditions: Hepatitis C virus, Huh-7, 72 h; read-out: Inhibition @ 10 uM in 1b-Rluc

SMILES | inhibition at 10 µM
C=Cc1cc(C(F)(F)F)c2nc(C(=O)NCc3ccccn3)cc(C)c2c1 [Compound 152] | 99.9%
